Laboratory results taken from patent US8440814B2, “Derivatives of cyclodextrins, process for their preparation and their use in particular for solubilizing pharmacologically active substances” (Centre National de la Recherche Scientifique, priority 2003, dated 2013).
Values joined by “and” are separate entries in the source; they are usually repeats but may differ in a detail not shown here. Equal values may be shown once. Read-outs that look alike come from different tables or passages of the source.

Columns and labels:
[1] = as described in WO 95/19994; cited from earlier work
solubility in water = assay type: physicochemical
[2] = solubilization of Taxotere in water by inclusion in the cyclodextrin derivative; assay type: physicochemical; conditions: 50 mmol·L^−1 of compound in sterile water; for solubility of the Taxotere in a solution of the compound: stirred at 70° C., stays in solution at ambient temperature
Excerpt: These inclusion complexes can be prepared for example by adding to a solution or a suspension of the compound of the invention of formula (I) the pharmacologically active molecule in solution or in the pure state. The inclusion complex thus formed can be isolated by freeze-drying.
In the case of the compounds of the taxol family, such as Taxotere®, it is also possible to disperse this product in the pure state in a sterile solution of a compound according to the invention.
Starting with Taxotere in the pure state, 2.1 mg ([…]) of this product is dispersed in 1 mL of a solution containing 50 mmol·L^−1 of compound No. 1 in sterile water, then the suspension obtained is stirred at 70° C. until a clear solution is obtained which indicates the complexing of the Taxotere.

[3] = target: concanavalin A (ConA) lectin (Canavalia ensiformis, UniProt P02866); assay type: binding
Method: The affinity of the thioureidocysteaminyl-cyclodextrins of the invention for specific membrane lectins was evaluated in vitro following the ELLA (Enzyme-Linked Lectin Assay) protocol. […] 2002, 102, pp. 555-578. This technique measures the capacity of a soluble mono- or oligosaccharide ligand to inhibit the association between a complementary lectin and another reference ligand fixed to a plastic support microplate.
The IC50 values are inversely proportional to the respective affinities.
The cells of a microtitre plate (Nunc-Immuno™ plates, MaxiSorp™) are loaded with 100 μL of a stock solution of yeast mannan (Sigma, 10 μg·mL^−1) in a saline phosphate buffer solution (PBS; pH 7.3 containing Ca^2+ 0.1 mM and Mn^2+ 0.1 mM) for one night at ambient temperature. The cells are washed (3×300 μL) with a buffer solution containing 0.05% (v/v) of Tween 20 (PBST). This washing protocol is repeated after each incubation during the test. A bovine serum albumin solution (BSA, 1%) in PBS (150 μL/cell) is then added to the cells followed by incubation for 1 hour at 37° C., then washed.
In order to determine the optimal lectin concentration for inhibition studies, 100 μL of a series of concanavalin A solutions marked with radish peroxidase of 10^−1 to 10^−5 mg·mL^−1 in PBS is added to the cells loaded with mannan, and treated as indicated above. After incubation at 37° C. for 1 hour, the plates are washed (PBST) and a solution (50 μL) of the diammonium salt of 2,2′-azinobis(3-ethylbenzothiazoline-6-sulphonic) acid (ABTS, 1 mg in 4 mL) in citrate buffer (0.2 M, pH 4.0 with 0.015% hydrogen peroxide) is added. The reaction is stopped after 20 minutes by adding 50 μL/cell of sulphuric acid 1 M and the absorbances are measured at 415 nm using an ELISA reader. The control cells contained citrate-phosphate buffer.
In a series of experiments ConA marked with radish peroxidase in an appropriate concentration as indicated above (60 μL/cell) is added to the solutions of each compound (60 μL/cell) in PBS sequentially diluted twice, in a Nunclon™ (Delta) microtitre plate which is incubated at 37° C. for 1 hour. The solutions (100 μL/cell) are then transferred onto a microtitre plate loaded with mannan and treated as indicated above, which is then incubated at 37° C. for 1 hour. The cells are washed (PBST) and the ABTS solution (50 μL/cell) is added. After 20 minutes, the reaction is stopped (sulphuric acid) and the absorbances are measured. The percentage of inhibition is calculated with the formula: […]

Molecule: 6^I-S-α-maltosyl-6^I-thiocyclomaltoheptaose
- solubility in water of Taxotere on adding the cyclodextrin derivative to its aqueous suspension [1]: up to 6.5 g/L

Molecule: Cl.Cl.Cl.Cl.Cl.Cl.Cl.NCCSC[C@H]1O[C@@H]2O[C@H]3[C@H](O)[C@@H](O)[C@@H](O[C@H]4[C@H](O)[C@@H](O)[C@@H](O[C@H]5[C@H](O)[C@@H](O)[C@@H](O[C@H]6[C@H](O)[C@@H](O)[C@@H](O[C@H]7[C@H](O)[C@@H](O)[C@@H](O[C@H]8[C@H](O)[C@@H](O)[C@@H](O[C@H]1[C@H](O)[C@H]2O)O[C@@H]8CSCCN)O[C@@H]7CSCCN)O[C@@H]6CSCCN)O[C@@H]5CSCCN)O[C@@H]4CSCCN)O[C@@H]3CSCCN [Compound No. 1, heptakis[6-S-(2-aminoethyl-6-thio)]cyclomalto heptaose heptahydrochloride]
- solubility in water (solubility in water): 500 g·L^−1 and 323 mmol·L^−1
- increase in the solubility of the Taxotere versus absence of cyclodextrin [2]: ~525 times
- solubility of the Taxotere in a solution of the compound [2]: 2100 µg/mL

Molecule: OC[C@H]1O[C@H](NC(=S)NCCSC[C@H]2O[C@@H]3O[C@H]4[C@H](O)[C@@H](O)[C@@H](O[C@H]5[C@H](O)[C@@H](O)[C@@H](O[C@H]6[C@H](O)[C@@H](O)[C@@H](O[C@H]7[C@H](O)[C@@H](O)[C@@H](O[C@H]8[C@H](O)[C@@H](O)[C@@H](O[C@H]9[C@H](O)[C@@H](O)[C@@H](O[C@H]2[C@H](O)[C@H]3O)O[C@@H]9CSCCNC(=S)N[C@H]2O[C@H](CO)[C@@H](O)[C@H](O)[C@@H]2O)O[C@@H]8CSCCNC(=S)N[C@H]2O[C@H](CO)[C@@H](O)[C@H](O)[C@@H]2O)O[C@@H]7CSCCNC(=S)N[C@H]2O[C@H](CO)[C@@H](O)[C@H](O)[C@@H]2O)O[C@@H]6CSCCNC(=S)N[C@H]2O[C@H](CO)[C@@H](O)[C@H](O)[C@@H]2O)O[C@@H]5CSCCNC(=S)N[C@H]2O[C@H](CO)[C@@H](O)[C@H](O)[C@@H]2O)O[C@@H]4CSCCNC(=S)N[C@H]2O[C@H](CO)[C@@H](O)[C@H](O)[C@@H]2O)[C@@H](O)[C@@H](O)[C@@H]1O [Compound No. 2]
- IC50 [3]: 175 µM
- Relative affinity [3]: 4.9
- Relative molar affinity [3]: 0.7

Molecule: OC[C@H]1O[C@H](OCC(CO[C@H]2O[C@H](CO)[C@@H](O)[C@H](O)[C@@H]2O)(CO[C@H]2O[C@H](CO)[C@@H](O)[C@H](O)[C@@H]2O)NC(=S)NCCSC[C@H]2O[C@@H]3O[C@H]4[C@H](O)[C@@H](O)[C@@H](O[C@H]5[C@H](O)[C@@H](O)[C@@H](O[C@H]6[C@H](O)[C@@H](O)[C@@H](O[C@H]7[C@H](O)[C@@H](O)[C@@H](O[C@H]8[C@H](O)[C@@H](O)[C@@H](O[C@H]9[C@H](O)[C@@H](O)[C@@H](O[C@H]2[C@H](O)[C@H]3O)O[C@@H]9CSCCNC(=S)NC(CO[C@H]2O[C@H](CO)[C@@H](O)[C@H](O)[C@@H]2O)(CO[C@H]2O[C@H](CO)[C@@H](O)[C@H](O)[C@@H]2O)CO[C@H]2O[C@H](CO)[C@@H](O)[C@H](O)[C@@H]2O)O[C@@H]8CSCCNC(=S)NC(CO[C@H]2O[C@H](CO)[C@@H](O)[C@H](O)[C@@H]2O)(CO[C@H]2O[C@H](CO)[C@@H](O)[C@H](O)[C@@H]2O)CO[C@H]2O[C@H](CO)[C@@H](O)[C@H](O)[C@@H]2O)O[C@@H]7CSCCNC(=S)NC(CO[C@H]2O[C@H](CO)[C@@H](O)[C@H](O)[C@@H]2O)(CO[C@H]2O[C@H](CO)[C@@H](O)[C@H](O)[C@@H]2O)CO[C@H]2O[C@H](CO)[C@@H](O)[C@H](O)[C@@H]2O)O[C@@H]6CSCCNC(=S)NC(CO[C@H]2O[C@H](CO)[C@@H](O)[C@H](O)[C@@H]2O)(CO[C@H]2O[C@H](CO)[C@@H](O)[C@H](O)[C@@H]2O)CO[C@H]2O[C@H](CO)[C@@H](O)[C@H](O)[C@@H]2O)O[C@@H]5CSCCNC(=S)NC(CO[C@H]2O[C@H](CO)[C@@H](O)[C@H](O)[C@@H]2O)(CO[C@H]2O[C@H](CO)[C@@H](O)[C@H](O)[C@@H]2O)CO[C@H]2O[C@H](CO)[C@@H](O)[C@H](O)[C@@H]2O)O[C@@H]4CSCCNC(=S)NC(CO[C@H]2O[C@H](CO)[C@@H](O)[C@H](O)[C@@H]2O)(CO[C@H]2O[C@H](CO)[C@@H](O)[C@H](O)[C@@H]2O)CO[C@H]2O[C@H](CO)[C@@H](O)[C@H](O)[C@@H]2O)[C@@H](O)[C@@H](O)[C@@H]1O [Compound No. 3, heptakis[6-S-[2-N′-tris(α-D-mannopyranosyloxymethyl)methylthioureido]ethyl-6-thio]cyclomaltoheptaose]
- Relative affinity [3]: 41
- Relative molar affinity [3]: 2.0

Molecule: COC1OC(CO)C(O)C(O)C1O [Me-α-D-Glcp, methyl-α-D-glucopyranoside, reference compound]
- Relative affinity ([3]; relative to Me-α-D-Glcp = 1): 1
- Relative molar affinity ([3]; relative to Me-α-D-Glcp = 1): 1

Molecule: OCC1OC(NC(=S)NCC2OC3OC4C(CNC(=S)NC5OC(CO)C(O)C(O)C5O)OC(OC5C(CNC(=S)NC6OC(CO)C(O)C(O)C6O)OC(OC6C(CNC(=S)NC7OC(CO)C(O)C(O)C7O)OC(OC7C(CNC(=S)NC8OC(CO)C(O)C(O)C8O)OC(OC8C(CNC(=S)NC9OC(CO)C(O)C(O)C9O)OC(OC9C(CNC(=S)NC%10OC(CO)C(O)C(O)C%10O)OC(OC2C(O)C3O)C(O)C9O)C(O)C8O)C(O)C7O)C(O)C6O)C(O)C5O)C(O)C4O)C(O)C(O)C1O [heptakis(6-deoxy-6-α-D-mannopyranosylthioureido)cyclomaltoheptaose, reference compound]
- inhibition of the association between concanavalin A and yeast mannan ([3]; 175 µM): 8%

Molecule: heptakis[6-S-[2-N′-[2,2,2-tris[5-(1-thio-α-D-mannopyranosyl)-2-oxapentyl]ethyl]thioureido]ethyl-6-thio]cyclomaltoheptaose [Compound No. 4]
- Relative affinity [3]: 173
- Relative molar affinity [3]: 8.2
- increase in the solubility of the Taxotere versus absence of cyclodextrin [2]: ~500 times
- solubility of the Taxotere in a solution of the compound [2]: 2000 µg/mL

Molecule: heptakis[6-S-[2-N′-[2,2-bis[5-(1-thio-α-D-mannopyranosyl)-2-oxapentyl]-2-[5-(1-thio-β-D-glucopyranosyl)-2-oxapentyl]ethyl]thioureido]ethylthio]cyclomaltoheptaose [Compound No. 7]
- Relative affinity [3]: 67
- Relative molar affinity [3]: 4.8

Molecule: heptakis[6-S-[2-N′-[2-[5-(1-thio-α-D-manno pyranosyl)-2-oxapentyl]-2,2-bis[5-(1-thio-β-D-glucopyranosyl)-2-oxapentyl]ethyl]thioureido]ethyl-6-thio]cyclomaltoheptaose [Compound No. 6]
- Relative affinity [3]: 48
- Relative molar affinity [3]: 6.9
- recognition by ConA (in words) [3]: not recognized by ConA
